Data as given in patent US9047503B2, “System and method for automated biological cell assay data analysis” (GE HEALTHCARE UK LIMITED, priority 2010, dated 2015).

Columns and labels:
[1] = system: cytoplasmatic membrane integrity; format: cell-based
Method: (§1) However, in order to verify further the robustness of the developed methods, these algorithms were tested on FOV-averaged data generated from a real toxicity assay. The cell-based experiment involved the influence of several drugs and the applications of two fluorescent markers during a 5-hour time course. The general background for such an experimental study is outlined in the article by O'Brien et al.
The first example analyzed the cytoplasmatic membrane integrity, as indicated by the TOTO-3 marker. TOTO-3 stains cell nuclei only after cell plasma membrane disruption. The response1(t) generated by disruption to the membrane is therefore a curve representing the increase of cell nuclei intensity in TOTO-3 channel. This intensity was measured by a microscopy HTS system. However, the exact moment when a particular membrane became disrupted was unpredictable.
The analysis therefore used stochastic fitting involving a single time parameter (the width of the box-shaped distribution of starting times of the response).
FIG. 11 represents the raw TOTO-3 response. The TOTO-3 response was taken for two values of drug concentration, denoted “high” and “low”.
Data fitting was performed using a response1(t) function having an exponential rising shape. τ was equal to 15 minutes, A=0.5 and B=1.48. The starting time distribution was box shaped with tmin=0 and widtht−fitted.

[2] = system: mitochondrial membrane potential; format: cell-based
Method: Various examples describing various real-life responses obtained using the mitochondrial marker TMRM will now be given. In actual images of cells stained with TMRM, the level of fluorescence intensity is related to the mitochondrial membrane potential, loss of which can be an indicator of cytotoxicity.
as §1
The second example analyzed a mitochondrial marker (TMRM) response. […] It was assumed that all cells started reacting immediately after drug addition. The reaction of a mitochondrial potential to a perturbation (i.e. a drug) is considered to be potentially very diverse.
The expression defined in Equation 16 above is very flexible, and uses as a fitting parameter the single time scale (“τ”), amplitude (“range”) and another parameter (“α”) for controlling response nonlinearity.
The TMRM response was taken for two values of drug concentration, denoted “high” and “low”.
Data fitting was performed using the technique discussed in relation to Equation 16, above. […]

`COc1ccc(CCN2CCC(Nc3nc4ccccc4n3Cc3ccc(F)cc3)CC2)cc1` [astemizole] was tested, and the “TOTO-3 response speed (characteristic time) relative to controls” value [1] was “responding faster than controls”.
With `O=C1CN(/N=C/c2ccc(-c3ccc([N+](=O)[O-])cc3)o2)C(O)=N1` [dantrolene] the “effect on mitochondrial function (TMRM response)” value [2] was “no effect”.
With `CC/C(=C(\c1ccccc1)c1ccc(OCCN(C)C)cc1)c1ccccc1` [tamoxifen] the “TOTO-3 response speed (characteristic time) relative to controls” value [1] was “responding faster than controls”.
`Cc1oncc1C(=O)Nc1ccc(C(F)(F)F)cc1` [leflunomide] was tested, and the “effect on mitochondrial function (TMRM response)” value [2] was “no effect”.
`CC[C@H](C)C(=O)O[C@H]1C[C@@H](C)C=C2C=C[C@H](C)[C@H](CC[C@@H]3C[C@@H](O)CC(=O)O3)[C@H]21` [lovastatin] was tested, and the “TOTO-3 response speed (characteristic time) relative to controls” value [1] was “responding faster than controls”.
